Reference: patent US11168087B2, “Substituted imidazo[1,2-b]pyridazines, substituted imidazo[1,5-b]pyridazines, related compounds, and their use in the treatment of medical disorders” (BIAL—R&D Investments, S.A., priority 2016, dated 2021)

Target: T1, glucocerebrosidase (Gcase) (Homo sapiens, UniProt P04062)
T1 construct: micellar solution containing 10 nM GCase and 100 nM saposin C
T1 sequence (P04062 40-536): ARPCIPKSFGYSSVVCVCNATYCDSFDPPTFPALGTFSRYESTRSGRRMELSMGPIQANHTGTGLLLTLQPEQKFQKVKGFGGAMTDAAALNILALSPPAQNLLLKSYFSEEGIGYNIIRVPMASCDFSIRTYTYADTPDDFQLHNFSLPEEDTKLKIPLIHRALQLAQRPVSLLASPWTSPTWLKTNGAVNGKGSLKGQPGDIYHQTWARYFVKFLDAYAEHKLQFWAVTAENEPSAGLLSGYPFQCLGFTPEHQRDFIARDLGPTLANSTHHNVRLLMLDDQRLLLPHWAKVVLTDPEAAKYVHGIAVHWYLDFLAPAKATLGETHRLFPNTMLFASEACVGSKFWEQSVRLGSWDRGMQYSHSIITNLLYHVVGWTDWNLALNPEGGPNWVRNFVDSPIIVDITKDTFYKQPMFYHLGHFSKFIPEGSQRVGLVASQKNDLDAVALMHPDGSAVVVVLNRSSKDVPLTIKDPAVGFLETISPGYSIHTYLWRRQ
Test: Glucocerebrosidase (Gcase) activation assay, 4-methylumbelliferyl-beta-D-glucopyranoside substrate, with saposin C
Assay type: biochemical
Settings: 0.25 h; for activation at 0.1 µM: read-out: Percent Gcase Activation 0.1 μM Test Compound; for activation at 1 µM: read-out: Percent Gcase Activation 1 μM Test Compound
Protocol: The ability of exemplary compounds to activate glucocerebrosidase (Gcase) was measured.
A 484 μL aliquot of a 1.0 mg/mL solution of phosphatidylserine (PS) (Sigma P7769) in chloroform was evaporated under a stream of nitrogen for 1 hour. The lipid film was dissolved over 4 minutes of vigorous vortexing in 40 mL of 176 mM K2HPO4/50 mM citric acid (pH 4.7) containing 7.5 μL of triton X-100, resulting in a mixed micellar preparation with a composition of 0.32 mM triton and 0.37 mol % PS. 4-Methylumbelliferyl-beta-D-glucopyranoside (ACROS-337025000) was dissolved in the micellar solution to a final concentration of 2 mM for use as the reaction substrate.
Test compounds were diluted to the desired concentrations with dimethylsulfoxide (DMSO) from 10 mM stocks, and 0.41 μL of the DMSO compound mixture was added to 100 μL of micellar solution containing 10 nM GCase and 100 nM saposin C (Enzo ALX-201-262-C050). Pre-incubation was allowed to occur for 30 minutes at room temperature, after which the reaction was initiated by combining 25 μL of substrate solution with 25 μL of compound/GCase/saposin mixture. The reaction proceeded for 15 minutes at room temperature and was stopped by adding 150 μL of 1M glycine, pH 12.5. The endpoint of the reaction was monitored by measuring fluorescence intensity (excitation: 365 nm; emission: 440 nm) on a SpectraMax i3 instrument (Molecular Devices). Test compounds were screened at 1.0 and 0.1 μM final concentration, and subsequent 8-point dose response curves were obtained using 3-fold dilutions from a maximum final concentration of 5 μM.
The symbol “+” indicates less than 5% Gcase activation; the symbol “++” indicates Gcase activation in the range of 5% up to 20%; and the symbol “+++” indicates Gcase activation greater than 20%.

| Structure (SMILES) | activation at 0.1 µM | activation at 1 µM |
| --- | --- | --- |
| Cc1cc2ncc(C(=O)Nc3ccc4c(c3)CCC4)n2nc1Cl | < 5% | 5 to 20% |
| Cc1cc(-c2cccc3ncoc23)nn2c(C(=O)NC(C3CC3)C(F)(F)F)cnc12 (stereo not drawn) | 5 to 20% | > 20% |
| Cc1cc(-c2cccc3ncoc23)nn2c(C(=O)NC(C)C(F)(F)F)cnc12 (stereo not drawn) | < 5% | > 20% |
| Cc1cc(-c2ccc3ocnc3c2)nn2c(C(=O)NC(C)C(F)(F)F)cnc12 (stereo not drawn) | > 20% | > 20% |
| Cc1cc(-c2ccc3ocnc3c2)nn2c(C(=O)N[C@@H](C3CC3)C(F)(F)F)cnc12 | > 20% | > 20% |
| Cc1cc(-c2ccc(F)cc2C#N)nn2c(C(=O)N[C@H](C3CC3)C(F)(F)F)cnc12 | 5 to 20% | > 20% |
| Cc1cc(-c2ccc(F)cc2C#N)nn2c(C(=O)N[C@@H](C)C(F)(F)F)cnc12 | 5 to 20% | > 20% |
| Cc1cc(-c2sccc2C#N)nn2c(C(=O)N[C@@H](C3CC3)C(F)(F)F)cnc12 | > 20% | > 20% |
| Cc1cc(N2CCN(C(C)C)C2=O)nn2c(C(=O)NC(C3CC3)C(F)(F)F)cnc12 (stereo not drawn) | 5 to 20% | > 20% |
| Cc1cc(-c2cccc(Cl)n2)nn2c(C(=O)NC(C)C(F)(F)F)cnc12 (stereo not drawn) | 5 to 20% | > 20% |
| Cc1cc(-c2cc(C)c3ncc(C(=O)N[C@H](C4CC4)C(F)(F)F)n3n2)sn1 | > 20% | > 20% |
| Cc1cc(-c2cccnc2F)nn2c(C(=O)NC(C3CC3)C(F)(F)F)cnc12 (stereo not drawn) | 5 to 20% | > 20% |
| Cc1cc(-c2cncc(Cl)c2)nn2c(C(=O)N[C@H](C3CC3)C(F)(F)F)cnc12 | > 20% | > 20% |
| Cc1cc(-c2cncc(F)c2)nn2c(C(=O)NC(C3CC3)C(F)(F)F)cnc12 (stereo not drawn) | 5 to 20% | > 20% |
| Cc1nc2cc(-c3cc(C)c4ncc(C(=O)NC(C)C(F)(F)F)n4n3)ccc2o1 (stereo not drawn) | 5 to 20% | > 20% |
| Cc1cc(N2CCCC(F)(F)C2)nn2c(C(=O)N[C@H](C3CC3)C(F)(F)F)cnc12 | > 20% | > 20% |
| Cc1cc(-c2ccccc2C#N)nn2c(C(=O)NC(C3CC3)C(F)(F)F)cnc12 (stereo not drawn) | 5 to 20% | > 20% |
| Cc1cc(-c2ccc(F)o2)nn2c(C(=O)NC(C3CC3)C(F)(F)F)cnc12 (stereo not drawn) | > 20% | > 20% |
| Cc1cc(C#N)c(-c2cc(C)c3ncc(C(=O)N[C@@H](C)C(F)(F)F)n3n2)o1 | > 20% | > 20% |
| Cc1cc(-c2ccc3c(c2)ncn3C)nn2c(C(=O)N[C@H](C3CC3)C(F)(F)F)cnc12 | 5 to 20% | > 20% |
| Cc1cc(-c2ccc3c(c2)ncn3C)nn2c(C(=O)N[C@@H](C3CC3)C(F)(F)F)cnc12 | 5 to 20% | > 20% |
| Cc1cncc(-c2cc(C)c3ncc(C(=O)N[C@H](C4CC4)C(F)(F)F)n3n2)c1 | 5 to 20% | > 20% |
| Cc1cncc(-c2cc(C)c3ncc(C(=O)N[C@@H](C4CC4)C(F)(F)F)n3n2)c1 | < 5% | > 20% |
| COc1cncc(-c2cc(C)c3ncc(C(=O)N[C@H](C4CC4)C(F)(F)F)n3n2)c1 | 5 to 20% | > 20% |
| C#CC(NC(=O)c1ncc2c(C)cc(-c3cccc(F)c3)nn12)C(F)(F)F (stereo not drawn) [2-(3-Fluorophenyl)-4-methyl-N-(1,1,1-trifluorobut-3-yn-2-yl)imidazo[1,5-b]pyridazine-7-carboxamide] | > 20% | > 20% |
| Cc1cc(C)c2occ(C(=O)NC3CCCc4ccccc43)c2n1 (stereo not drawn) [5,7-Dimethyl-N-(1,2,3,4-tetrahydronaphthalen-1-yl)furo[3,2-b]pyridine-3-carboxamide] | > 20% | > 20% |
| Cc1cc(C)c2snc(C(=O)NC3CCCc4ccccc43)c2n1 (stereo not drawn) [5,7-Dimethyl-N-(1,2,3,4-tetrahydronaphthalen-1-yl)isothiazolo[4,5-b]pyridine-3-carboxamide] | > 20% | > 20% |
| Cc1cc(C)c2onc(C(=O)NC3CCCc4ccccc43)c2n1 (stereo not drawn) [5,7-Dimethyl-N-(1,2,3,4-tetrahydronaphthalen-1-yl)isoxazolo[4,5-b]pyridine-3-carboxamide] | 5 to 20% | > 20% |
| CCC(NC(=O)c1coc2c(C)cc(C)nc12)c1ccccc1 (stereo not drawn) [5,7-Dimethyl-N-(1-phenylpropyl)furo[3,2-b]pyridine-3-carboxamide] | > 20% | > 20% |

Further lines, results first:

| activation at 0.1 µM | activation at 1 µM | Structure (SMILES) |
| --- | --- | --- |
| 5 to 20% | > 20% | Cc1cc(-c2cccc(F)c2)nn2c(C(=O)NC(C)C(F)(F)F)cnc12 (stereo not drawn) |
| 5 to 20% | > 20% | Cc1cc(-c2ccc(F)cc2C#N)nn2c(C(=O)NC(C3CC3)C(F)(F)F)cnc12 (stereo not drawn) |
| 5 to 20% | > 20% | Cc1cc(-c2ccc(F)cc2C#N)nn2c(C(=O)NC(C)C(F)(F)F)cnc12 (stereo not drawn) |
| > 20% | > 20% | Cc1cc(-c2ccc3ocnc3c2)nn2c(C(=O)N[C@H](C3CC3)C(F)(F)F)cnc12 |
| 5 to 20% | > 20% | Cc1cc(-c2ccc3ocnc3c2)nn2c(C(=O)N[C@H](C)C(F)(F)F)cnc12 |
| > 20% | > 20% | Cc1cc(-c2ccc3ocnc3c2)nn2c(C(=O)N[C@@H](C)C(F)(F)F)cnc12 |
| > 20% | > 20% | Cc1cc(-c2ccc(F)cc2C#N)nn2c(C(=O)N[C@@H](C3CC3)C(F)(F)F)cnc12 |
| < 5% | 5 to 20% | Cc1cc(-c2ccc(F)cc2C#N)nn2c(C(=O)N[C@H](C)C(F)(F)F)cnc12 |
| < 5% | > 20% | Cc1cc(-c2ccc(F)cc2C#N)nn2c(C(=O)N[C@H](C)C3CC3)cnc12 |
| > 20% | > 20% | Cc1cc(-c2ccc(C#N)o2)nn2c(C(=O)N[C@H](C3CC3)C(F)(F)F)cnc12 |
| > 20% | > 20% | Cc1cc(-c2ccc(C#N)o2)nn2c(C(=O)N[C@@H](C3CC3)C(F)(F)F)cnc12 |
| > 20% | > 20% | Cc1cc(-c2sccc2C#N)nn2c(C(=O)N[C@H](C3CC3)C(F)(F)F)cnc12 |
| 5 to 20% | > 20% | Cc1cc(-c2ccon2)nn2c(C(=O)NC(C3CC3)C(F)(F)F)cnc12 (stereo not drawn) |
| 5 to 20% | > 20% | Cc1cc(-c2cc(C)c3ncc(C(=O)N[C@@H](C4CC4)C(F)(F)F)n3n2)sn1 |
| > 20% | > 20% | Cc1cc(-c2cncc(Cl)c2)nn2c(C(=O)N[C@@H](C3CC3)C(F)(F)F)cnc12 |
| > 20% | > 20% | Cc1cc(N2CCCC(F)(F)C2)nn2c(C(=O)N[C@@H](C3CC3)C(F)(F)F)cnc12 |
| 5 to 20% | > 20% | Cc1cc(C#N)c(-c2cc(C)c3ncc(C(=O)N[C@H](C)C(F)(F)F)n3n2)o1 |
| 5 to 20% | > 20% | COc1cncc(-c2cc(C)c3ncc(C(=O)N[C@@H](C4CC4)C(F)(F)F)n3n2)c1 |
| 5 to 20% | > 20% | Cc1cc(-c2ccc(C(N)=O)o2)nn2c(C(=O)N[C@@H](C3CC3)C(F)(F)F)ncc12 |
| > 20% | > 20% | Cc1cc(-c2ccc(C#N)o2)nn2c(C(=O)N[C@@H](C3CC3)C(F)(F)F)ncc12 |
| 5 to 20% | > 20% | CCC(NC(=O)c1nsc2c(C)cc(C)nc12)c1ccccc1 (stereo not drawn) [5,7-Dimethyl-N-(1-phenylpropyl)isothiazolo[4,5-b]pyridine-3-carboxamide] |
| 5 to 20% | > 20% | CCC(NC(=O)c1noc2c(C)cc(C)nc12)c1ccccc1 (stereo not drawn) [5,7-Dimethyl-N-(1-phenylpropyl)isoxazolo[4,5-b]pyridine-3-carboxamide] |
